# ChEMBL document CHEMBL1949562, “Triterpenes possessing an unprecedented skeleton isolated from hydrolyzate of total saponins from Gynostemma pentaphyllum” (Eur J Med Chem, 2012)
# Tests used:
# A549 = assay: Cytotoxicity against human A549 cells after 72 hrs by MTT assay; format: functional, cell-based; details: A549, 72 h
# [1] = Cytotoxicity against human U87 cells after 72 hrs by MTT assay; format: functional, cell-based, U-87MG ATCC; details: U-87 MG
# [2] = Cytotoxicity against human Hep3B cells after 72 hrs by MTT assay; format: functional, cell-based, Hep 3B2
smiles,measurement,setting,value
CC(C)=C1CC=C([C@H]2CC[C@]3(C)[C@@H]2CC[C@@H]2C4=C(CC[C@]23C)C(C)(C)[C@@H]2CC[C@H]4O2)C1=O [GYPENSAPOGENIN A],IC50,A549,71.2 µM
same,IC50,[1],> 100 µM
same,IC50,[2],44.4 µM
CC(C)=CCC[C@](C)(O)[C@H]1CC[C@]2(C)[C@@H]1[C@H](O)C[C@@H]1[C@@]3(C)CC[C@H](O)C(C)(C)[C@@H]3CC[C@]12C,IC50,[1],36.7 µM
same,IC50,[2],14.7 µM
CC(C)=C[C@H]1C=C([C@H]2CC[C@]3(C)[C@@H]2CC[C@@H]2[C@@]4(C)CC[C@H](O[C@@H]5O[C@H](CO)[C@@H](O)[C@H](O)[C@H]5O)C(C)(C)[C@@H]4CC[C@]23C)C(=O)O1,IC50,A549,> 100 µM
same,IC50,[1],> 100 µM
same,IC50,[2],> 100 µM
COc1cc([C@@H]2c3cc4c(cc3[C@@H](O[C@@H]3O[C@@H]5CO[C@@H](C)O[C@H]5[C@H](O)[C@H]3O)[C@H]3COC(=O)[C@H]23)OCO4)cc(OC)c1O [ETOPOSIDE],IC50,A549,23.8 µM
same,IC50,[1],12.4 µM
same,IC50,[2],6.7 µM
CC(C)=C1CC=C([C@H]2CC[C@]3(C)[C@@H]2CC[C@@H]2[C@@]4(C)CC[C@H](O)C(C)(C)[C@@H]4CC[C@]23C)C1=O [GYPENSAPOGENIN C],IC50,A549,0.11 µM
same,IC50,[1],0.58 µM
same,IC50,[2],> 100 µM
CC(C)=C[C@H]1C=C([C@H]2CC[C@]3(C)[C@@H]2CC[C@@H]2[C@@]4(C)CC[C@H](O)C(C)(C)[C@@H]4CC[C@]23C)C(=O)O1 [GYPENSAPOGENIN D],IC50,A549,> 100 µM
same,IC50,[1],> 100 µM
same,IC50,[2],> 100 µM
CC(C)=C1CC([C@H]2CC[C@]3(C)[C@@H]2CC[C@@H]2C4=C(CC[C@]23C)C(C)(C)[C@@H]2CC[C@H]4O2)=CC1=O [GYPENSAPOGENIN B],IC50,A549,> 100 µM
same,IC50,[1],> 100 µM
same,IC50,[2],> 100 µM
